This note sets out measurements from PMC5218480 (PLoS ONE, 2017).

This assay deals with MV-4-11 cells. As to the kind of experiment: Gene expression microarray analysis (Affymetrix PrimeView) and GSEA. The format is cell-based, human. The settings on record: MV-4-11 cells, 48 hours. More on the design: RFU PODN (11730768_x_at) / Fold change /veh PODN (11730768_x_at) / RFU LINC00158 (11744669_a_at) / Fold change /veh LINC00158 (11744669_a_at) / RFU DUSP10 (11751237_a_at) / Fold change /veh DUSP10 (11751237_a_at) / RFU ID3 (11757404_x_at) / Fold change /veh ID3 (11757404_x_at) / RFU PLEKHG5 (11737974_s_at) / Fold change /veh PLEKHG5 (11737974_s_at) / RFU LRRC4B (11730491_at) / Fold change /veh LRRC4B (11730491_at) / RFU GIMAP4 (11747438_a_at) / Fold change /veh GIMAP4 (11747438_a_at) / RFU KRT8 (11758183_x_at) / Fold change /veh KRT8 (11758183_x_at) / RFU CNN1 (11734310_a_at) / Fold change /veh CNN1 (11734310_a_at) / RFU VPS37D (11726825_at) / Fold change /veh VPS37D (11726825_at) / RFU C10orf10 (11716522_x_at) / Fold change /veh C10orf10 (11716522_x_at) / RFU KIR2DL2 /// KIR2DL4 /// KIR2DL5A /// KIR2DL5B /// KIR2DS1 /// KIR2DS2 /// KIR2DS3 /// KIR2DS4 /// KIR3DL3 /// KIR3DL3 /// KIR3DS1 (11738374_at) / Fold change /veh KIR2DL2 /// KIR2DL4 /// KIR2DL5A /// KIR2DL5B /// KIR2DS1 /// KIR2DS2 /// KIR2DS3 /// KIR2DS4 /// KIR3DL3 /// KIR3DL3 /// KIR3DS1 (11738374_at) / RFU C1QL1 (11718748_at) / Fold change /veh C1QL1 (11718748_at) / RFU TMPRSS4 (11747572_a_at) / Fold change /veh TMPRSS4 (11747572_a_at) / RFU HAMP (11756126_x_at) / Fold change /veh HAMP (11756126_x_at) / RFU RNFT2 (11725882_a_at) / Fold change /veh RNFT2 (11725882_a_at) / RFU NR4A2 (11747474_a_at) / Fold change /veh NR4A2 (11747474_a_at) / RFU ABCC12 (11746883_a_at) / Fold change /veh ABCC12 (11746883_a_at) / RFU TMEM136 (11760407_x_at) / Fold change /veh TMEM136 (11760407_x_at) / RFU CLDN22 /// WWC2 (11732394_at) / Fold change /veh CLDN22 /// WWC2 (11732394_at) / RFU HLA-DPB1 (11760878_x_at) / Fold change /veh HLA-DPB1 (11760878_x_at) / RFU SPINT1 (11716480_a_at) / Fold change /veh SPINT1 (11716480_a_at) / RFU GAP43 (11754022_s_at) / Fold change /veh GAP43 (11754022_s_at) / RFU A4GNT (11735810_at) / Fold change /veh A4GNT (11735810_at) / RFU PRB3 (11715151_x_at) / Fold change /veh PRB3 (11715151_x_at) / RFU TUBB4B (11761932_at) / Fold change /veh TUBB4B (11761932_at) / RFU CAPN14 (11732068_a_at) / Fold change /veh CAPN14 (11732068_a_at) / RFU TMCC2 (11721928_a_at) / Fold change /veh TMCC2 (11721928_a_at) / RFU IRGQ (11745062_a_at) / Fold change /veh IRGQ (11745062_a_at) / RFU FAM174B (11720279_a_at) / Fold change /veh FAM174B (11720279_a_at) / RFU TMPRSS4 (11748680_a_at) / Fold change /veh TMPRSS4 (11748680_a_at) / RFU FAM212B (11763350_a_at) / Fold change /veh FAM212B (11763350_a_at) / RFU PLEKHG5 (11743358_a_at) / Fold change /veh PLEKHG5 (11743358_a_at) / RFU ZSCAN30 (11745921_a_at) / Fold change /veh ZSCAN30 (11745921_a_at) / RFU CMKLR1 (11741424_a_at) / Fold change /veh CMKLR1 (11741424_a_at) / RFU LOC101060620 /// MAPK8IP1 (11723275_at) / Fold change /veh LOC101060620 /// MAPK8IP1 (11723275_at) / RFU SPTSSB (11747773_x_at) / Fold change /veh SPTSSB (11747773_x_at) / RFU PRSS12 (11739890_at) / Fold change /veh PRSS12 (11739890_at) / RFU BIN1 (11741810_x_at) / Fold change /veh BIN1 (11741810_x_at) / RFU WNT11 (11732464_a_at) / Fold change /veh WNT11 (11732464_a_at) / RFU C10orf10 (11716521_a_at) / Fold change /veh C10orf10 (11716521_a_at) / RFU C5orf56 (11738089_at) / Fold change /veh C5orf56 (11738089_at) / RFU CYB561 (11721691_x_at) / Fold change /veh CYB561 (11721691_x_at) / RFU ANKRD19P (11752326_a_at) / Fold change /veh ANKRD19P (11752326_a_at) / RFU OR2T12 /// OR2T33 /// OR2T8 (11738714_s_at) / Fold change /veh OR2T12 /// OR2T33 /// OR2T8 (11738714_s_at) / RFU VCAN (11748164_a_at) / Fold change /veh VCAN (11748164_a_at) / RFU JSRP1 (11732532_at) / Fold change /veh JSRP1 (11732532_at) / RFU KRTAP10-11 (11738290_x_at) / Fold change /veh KRTAP10-11 (11738290_x_at) / RFU MYO3A (11730013_a_at) / Fold change /veh MYO3A (11730013_a_at) / RFU EBF3 (11725865_a_at) / Fold change /veh EBF3 (11725865_a_at) / RFU CAMK2N1 (11719241_x_at) / Fold change /veh CAMK2N1 (11719241_x_at) / RFU C5orf56 (11738088_a_at) / Fold change /veh C5orf56 (11738088_a_at) / RFU OLFML3 (11715873_a_at) / Fold change /veh OLFML3 (11715873_a_at) / RFU LOC100653217 /// NTM (11731650_a_at) / Fold change /veh LOC100653217 /// NTM (11731650_a_at) / RFU MAPK11 (11762145_a_at) / Fold change /veh MAPK11 (11762145_a_at) / RFU FIZ1 (11724087_x_at) / Fold change /veh FIZ1 (11724087_x_at) / RFU OASL (11726364_x_at) / Fold change /veh OASL (11726364_x_at) / RFU SOX15 (11748057_x_at) / Fold change /veh SOX15 (11748057_x_at) / RFU CD79A (11719716_a_at) / Fold change /veh CD79A (11719716_a_at) / RFU HIST1H1D (11736915_at) / Fold change /veh HIST1H1D (11736915_at) / RFU CASKIN2 (11723855_a_at) / Fold change /veh CASKIN2 (11723855_a_at) / RFU LOC730098 (11760151_x_at) / Fold change /veh LOC730098 (11760151_x_at) / RFU OR4N2 (11742367_at) / Fold change /veh OR4N2 (11742367_at) / RFU PRRT2 (11749266_a_at) / Fold change /veh PRRT2 (11749266_a_at) / RFU SNX32 (11753110_a_at) / Fold change /veh SNX32 (11753110_a_at) / RFU CDHR5 (11726645_a_at) / Fold change /veh CDHR5 (11726645_a_at) / RFU RCAN1 (11760418_a_at) / Fold change /veh RCAN1 (11760418_a_at) / RFU FAM167A (11723789_a_at) / Fold change /veh FAM167A (11723789_a_at) / RFU FAM26E (11764081_at) / Fold change /veh FAM26E (11764081_at) / RFU ISYNA1 (11749810_s_at) / Fold change /veh ISYNA1 (11749810_s_at) / RFU ACY1 (11761880_at) / Fold change /veh ACY1 (11761880_at) / RFU 11764098_at / Fold change /veh 11764098_at / RFU SAMD14 (11745864_x_at) / Fold change /veh SAMD14 (11745864_x_at) / RFU NPB (11741838_a_at) / Fold change /veh NPB (11741838_a_at) / RFU TMPRSS6 (11731388_a_at) / Fold change /veh TMPRSS6 (11731388_a_at) / RFU KRTAP10-2 (11738614_at) / Fold change /veh KRTAP10-2 (11738614_at) / RFU ARHGAP8 /// PRR5-ARHGAP8 (11727945_x_at) / Fold change /veh ARHGAP8 /// PRR5-ARHGAP8 (11727945_x_at) / RFU KRTAP5-7 /// NADSYN1 (11734609_at) / Fold change /veh KRTAP5-7 /// NADSYN1 (11734609_at) / RFU RASL12 (11751679_a_at) / Fold change /veh RASL12 (11751679_a_at) / RFU CDKN2B (11736163_a_at) / Fold change /veh CDKN2B (11736163_a_at) / RFU PRF1 (11729649_at) / Fold change /veh PRF1 (11729649_at) / RFU, ZNF638 /// ZNF638-IT1 / Fold change vs veh, ZNF638 /// ZNF638-IT1 / RFU, PANK3 / Fold change vs veh, PANK3 / RFU, SH3YL1 / Fold change vs veh, SH3YL1 / RFU, ZEB2 / Fold change vs veh, ZEB2 / RFU, NRIP1 / Fold change vs veh, NRIP1 / RFU, PTTG1IP / Fold change vs veh, PTTG1IP / RFU, CAPN2 / Fold change vs veh, CAPN2 / RFU, MED14 / Fold change vs veh, MED14 / RFU, SNORA58 / Fold change vs veh, SNORA58 / RFU, C1orf63 / Fold change vs veh, C1orf63 / RFU, LRRFIP1 / Fold change vs veh, LRRFIP1 / RFU, NDUFAF7 / Fold change vs veh, NDUFAF7 / RFU, SLC12A2 / Fold change vs veh, SLC12A2 / RFU, IBTK / Fold change vs veh, IBTK / RFU, ESF1 / Fold change vs veh, ESF1 / Fold change vs veh, TMEM50B / RFU, TAOK1 / Fold change vs veh, TAOK1 / RFU, ACBD3 / Fold change vs veh, ACBD3 / RFU, TMA16 / Fold change vs veh, TMA16 / RFU, RWDD3 / Fold change vs veh, RWDD3 / RFU, BCAT1 / Fold change vs veh, BCAT1 / RFU, EDEM3 / Fold change vs veh, EDEM3 / RFU, TMEM33 / Fold change vs veh, TMEM33 / RFU, WDR75 / Fold change vs veh, WDR75 / RFU, AHCTF1 / Fold change vs veh, AHCTF1 / RFU, TFRC / Fold change vs veh, TFRC / RFU, ZDHHC17 / Fold change vs veh, ZDHHC17 / RFU, NOM1 / Fold change vs veh, NOM1 / RFU, ARL8B / Fold change vs veh, ARL8B / RFU, ZBTB11 / Fold change vs veh, ZBTB11 / RFU, TAMM41 / Fold change vs veh, TAMM41 / RFU, KIAA1704 /// LOC100996395 / Fold change vs veh, KIAA1704 /// LOC100996395 / RFU, ING1 / Fold change vs veh, ING1 / RFU, TRMT61B / Fold change vs veh, TRMT61B / RFU, FUBP3 / Fold change vs veh, FUBP3 / RFU, TP53 / Fold change vs veh, TP53 / RFU, TNKS2 / Fold change vs veh, TNKS2 / RFU, ZFP14 / Fold change vs veh, ZFP14 / RFU, ACTR2 / Fold change vs veh, ACTR2 / RFU, PPP3R1 / Fold change vs veh, PPP3R1 / RFU, PIK3R1 / Fold change vs veh, PIK3R1 / RFU, HNRNPA1 / Fold change vs veh, HNRNPA1 / RFU, RNF170 / Fold change vs veh, RNF170 / RFU, ZNF28 / Fold change vs veh, ZNF28 / RFU, RNGTT / Fold change vs veh, RNGTT / RFU, OGT / Fold change vs veh, OGT / RFU, BRD1 / Fold change vs veh, BRD1 / RFU, MARS / Fold change vs veh, MARS / RFU, ZNF655 / Fold change vs veh, ZNF655 / RFU, FAHD1 / Fold change vs veh, FAHD1 / RFU, BDP1 / Fold change vs veh, BDP1 / RFU, LRRCC1 / Fold change vs veh, LRRCC1 / RFU, ARID1A / Fold change vs veh, ARID1A / RFU, ZNF146 / Fold change vs veh, ZNF146 / RFU, ZNF330 / Fold change vs veh, ZNF330 / RFU, GPN3 / Fold change vs veh, GPN3 / RFU, C9orf123 / Fold change vs veh, C9orf123 / RFU, N4BP2L2 / Fold change vs veh, N4BP2L2 / RFU, ARFIP1 / Fold change vs veh, ARFIP1 / RFU, FAM179B / Fold change vs veh, FAM179B / RFU, BCL10 / Fold change vs veh, BCL10 / RFU, UHRF1BP1L / Fold change vs veh, UHRF1BP1L / RFU, BET1 / Fold change vs veh, BET1 / RFU, CNOT2 / Fold change vs veh, CNOT2 / RFU, ZNF268 / Fold change vs veh, ZNF268 / Fold change vs veh, ZNF507 / RFU, DGCR2 / Fold change vs veh, DGCR2 / RFU, WDSUB1 / Fold change vs veh, WDSUB1 / Fold change vs veh, HSP90B1 /// MIR3652 / RFU, ADSS / Fold change vs veh, ADSS / RFU, GK / Fold change vs veh, GK / RFU, ZNF148 / Fold change vs veh, ZNF148 / RFU, TAF9 / Fold change vs veh, TAF9 / RFU, SLC1A5 / Fold change vs veh, SLC1A5 / RFU, SLMO2 / Fold change vs veh, SLMO2 / RFU, ABCC4 / Fold change vs veh, ABCC4 / RFU, LOC101060439 /// RAP1B / Fold change vs veh, LOC101060439 /// RAP1B / RFU, RFX7 / Fold change vs veh, RFX7 / RFU, GTPBP10 / Fold change vs veh, GTPBP10 / RFU, CNEP1R1 / Fold change vs veh, CNEP1R1 / RFU, BIVM-ERCC5 /// ERCC5 / Fold change vs veh, BIVM-ERCC5 /// ERCC5 / RFU, ILF3 / Fold change vs veh, ILF3 / RFU 11762660_at / Fold change /veh 11762660_at / RFU VCAN (11757783_s_at) / Fold change /veh VCAN (11757783_s_at) / RFU DDX43 (11728927_at) / Fold change /veh DDX43 (11728927_at) / RFU KRT8 (11758188_x_at) / Fold change /veh KRT8 (11758188_x_at) / RFU NKD1 (11759106_at) / Fold change /veh NKD1 (11759106_at) / RFU SRD5A1 (11742802_a_at) / Fold change /veh SRD5A1 (11742802_a_at) / RFU TPSAB1 /// TPSB2 (11721975_s_at) / Fold change /veh TPSAB1 /// TPSB2 (11721975_s_at) / RFU GSTM3 (11746129_a_at) / Fold change /veh GSTM3 (11746129_a_at) / RFU IL23R (11737362_x_at) / Fold change /veh IL23R (11737362_x_at) / RFU TMEM51 (11727254_a_at) / Fold change /veh TMEM51 (11727254_a_at) / RFU PIWIL2 (11732686_x_at) / Fold change /veh PIWIL2 (11732686_x_at) / RFU ORM1 (11744905_x_at) / Fold change /veh ORM1 (11744905_x_at) / RFU CCDC152 (11743942_at) / Fold change /veh CCDC152 (11743942_at) / RFU ECM1 (11717891_a_at) / Fold change /veh ECM1 (11717891_a_at) / RFU IL23R (11748794_a_at) / Fold change /veh IL23R (11748794_a_at) / RFU TNFAIP8L3 (11732012_x_at) / Fold change /veh TNFAIP8L3 (11732012_x_at) / RFU MBOAT4 (11741988_at) / Fold change /veh MBOAT4 (11741988_at) / RFU 11764193_at / Fold change /veh 11764193_at / RFU TMEM53 (11763286_at) / Fold change /veh TMEM53 (11763286_at) / RFU MAGEB2 (11727129_at) / Fold change /veh MAGEB2 (11727129_at) / RFU TMEM200A (11744735_a_at) / Fold change /veh TMEM200A (11744735_a_at) / RFU CCDC152 (11751479_a_at) / Fold change /veh CCDC152 (11751479_a_at) / RFU FAM211A (11726209_a_at) / Fold change /veh FAM211A (11726209_a_at) / RFU RGS16 (11746705_a_at) / Fold change /veh RGS16 (11746705_a_at) / RFU VCAN (11755009_s_at) / Fold change /veh VCAN (11755009_s_at) / RFU RHOB (11743442_s_at) / Fold change /veh RHOB (11743442_s_at) / RFU RGS16 (11720943_a_at) / Fold change /veh RGS16 (11720943_a_at) / RFU RGS16 (11720944_at) / Fold change /veh RGS16 (11720944_at) / RFU, VPS4B / Fold change vs veh, VPS4B / RFU, CREB1 / Fold change vs veh, CREB1 / RFU, DNAJC13 / Fold change vs veh, DNAJC13 / RFU, GNAQ / Fold change vs veh, GNAQ / RFU, CDK5R1 / Fold change vs veh, CDK5R1 / RFU, ZRANB3 / Fold change vs veh, ZRANB3 / RFU, CUL4A / Fold change vs veh, CUL4A / RFU, CCNY / Fold change vs veh, CCNY / RFU, UFL1 / Fold change vs veh, UFL1 / RFU, COG3 / Fold change vs veh, COG3 / RFU, DIAPH2 / Fold change vs veh, DIAPH2 / RFU, SKA2 / Fold change vs veh, SKA2 / RFU, AFF3 / Fold change vs veh, AFF3 / RFU, LMF1 / Fold change vs veh, LMF1 / RFU, IPO11 / Fold change vs veh, IPO11 / RFU, DFFB / Fold change vs veh, DFFB / RFU, FOXP1 / Fold change vs veh, FOXP1 / RFU, CARD8 / Fold change vs veh, CARD8 / RFU, STRN3 / Fold change vs veh, STRN3 / RFU, ADK / Fold change vs veh, ADK / RFU, RASSF2 / Fold change vs veh, RASSF2 / RFU, WIPF1 / Fold change vs veh, WIPF1 / RFU, LARP1B / Fold change vs veh, LARP1B / RFU, RASA1 / Fold change vs veh, RASA1 / RFU, RB1 / Fold change vs veh, RB1 / RFU, PPFIA1 / Fold change vs veh, PPFIA1 / RFU, MAT2A / Fold change vs veh, MAT2A / RFU, CCT5 / Fold change vs veh, CCT5 / RFU, WDR92 / Fold change vs veh, WDR92 / RFU, CUX1 / Fold change vs veh, CUX1 / RFU, TTC7A / Fold change vs veh, TTC7A / RFU, TMEM135 / Fold change vs veh, TMEM135 / RFU, DEPTOR / Fold change vs veh, DEPTOR / RFU, CPM / Fold change vs veh, CPM / RFU, DNAJB6 / Fold change vs veh, DNAJB6 / RFU, CACNA2D3 / Fold change vs veh, CACNA2D3 / RFU, DTX4 / Fold change vs veh, DTX4 / RFU, TFCP2 / Fold change vs veh, TFCP2 / RFU, GMCL1 /// GMCL1P1 / Fold change vs veh, GMCL1 /// GMCL1P1 / RFU, AEBP2 / Fold change vs veh, AEBP2 / RFU, SNHG1 /// SNORD22 /// SNORD25 /// SNORD26 /// SNORD27 /// SNORD28 /// SNORD29 /// SNORD31 / Fold change vs veh, SNHG1 /// SNORD22 /// SNORD25 /// SNORD26 /// SNORD27 /// SNORD28 /// SNORD29 /// SNORD31 / Fold change (Aza/veh), C12orf56 (ProbeSet 11735607_a_at) / Fold change (ACY-1035/veh), C12orf56 (ProbeSet 11735607_a_at) / Fold change (Aza/veh), FGFR1OP (ProbeSet 11751329_s_at) / Fold change (ACY-1035/veh), FGFR1OP (ProbeSet 11751329_s_at) / Fold change (Aza/veh), VPS36 (ProbeSet 11739960_a_at) / Fold change (ACY-1035/veh), VPS36 (ProbeSet 11739960_a_at) / RFU SYPL1 (11715823_x_at) / Fold change /veh SYPL1 (11715823_x_at) / RFU IGFBP7 (11715501_s_at) / Fold change /veh IGFBP7 (11715501_s_at) / RFU REEP3 (11722064_at) / Fold change /veh REEP3 (11722064_at) / RFU IGLL1 (11728026_x_at) / Fold change /veh IGLL1 (11728026_x_at): dose or concentration left out as unconfirmed.

For `Nc1ccc(-c2cccs2)cc1NC(=O)c1ccc2c(c1)cc(C1CC1)n2CCN1CCOCC1` [ACY-1035], the “RFU LINC00158 (11744669_a_at)” value amounted to 7.93 RFU.
